Results on 2 compounds are retold here after patent US11299514B2, “Antimicrobial peptide AS-hepc3(48-56) of Acanthopagrus schlegelii and method thereof” (Xiamen University, priority 2019, dated 2022).

Data set [1] has as its system Pseudomonas aeruginosa PAO1. Description: Comparative experiment of drug resistance (serial passage, change of MIC). The data set is classed as cell-based. An excerpt:
FIG. 1 illustrates a comparison of antimicrobial resistance of an antimicrobial peptide AS-hepc3(48-56) of Acanthopagrus schlegelii and antibiotic meropenem against Pseudomonas aeruginosa PAO1, wherein the abscissa represents time (days), and the ordinate represents a ratio of change of a minimum inhibition concentration (MIC) and an initial antimicrobial concentration.
1. Comparison of the antimicrobial peptide AS-hepc3(48-56) and antibiotic meropenem against Pseudomonas aeruginosa PAO1. Pseudomonas Aeruginosa PAO1 was purchased from the China General Microbiological Culture Collection Center, Institute of Microbiology, Chinese Academy of Sciences.
A detailed method is as follows:
(1) Preserved Pseudomonas aeruginosa PAO1 was streaked on MH plates and was cultured at 37° C. overnight;
(2) A single clone was screened and was cultured in MH liquid medium at 37° C. and 200 rpm to a logarithmic stage;
(3) The strain was corrected at 5000 g for 2 minutes, the strain was resuspended in 10 mM sodium phosphate buffer (pH=7.4), and the strain was finally diluted with a mixture of the 10 mM sodium phosphate buffer and the MH liquid medium to enable a final concentration of the stain to be 5×10^5 cfu/mL;
(4) Synthesized powder of the antimicrobial peptide AS-hepc3(48-56) was dissolved in sterile Milli-Q water, and a peptide concentration was diluted to 8 μM, 12 μM, 16 μM, 24 μM, 32 μM, 48 μM, 64 μM, or 96 μM in double ratios;
(5) Antibiotic meropenem powder was dissolved in sterile Milli-Q water to configure a 5 mg/mL reserved solution, filtered by a 0.22 μm filter membrane, and diluted to different work concentrations being 0.0625 μg/mL, 0.125 μg/mL, 0.25 μg/mL, 0.5 μg/mL, 1 μg/mL, 2 μg/mL, 4 μg/mL, 8 μg/mL, 16 μg/mL, 32 μg/mL, 48 μg/mL, 64 μg/mL, 96 μg/mL, 128 μg/mL, 192 μg/mL, 256 μg/mL, or 512 μg/mL; and
(6) On a 96-well cell culture plate, each test strain was arranged into a blank control group, a negative control group, and a test group, and three parallel groups of each test group were as follows: • a) Blank control group: 50 μL of test peptide sample and 50 μL of medium; • b) Negative control group: 50 μL of sterile Milli-Q water and 50 μL of strain suspension; and • c) Test group: 50 μL of the test peptide sample and 50 μL of the strain suspension.
The 96-well cell culture plate was placed in a 37° C. incubator and was cultured for 18-24 hours, and MIC results in the test group were observed. The strain having the maximum peptide concentration at which the growth of the strain could be observed was repeatedly diluted thousand-fold, and 50 μL was repeatedly taken for a next generation of antimicrobial experiments for 150 generations.

Data set [2] deals with human kidney epithelial cells (293T). Description: in vitro. The data set is classed as cell-based. An excerpt: (§1) FIGS. 2A and 2B illustrate cytotoxicity experimental result diagrams of antimicrobial peptide AS-hepc3(48-56) obtained by an MTS-PMS method, wherein FIG. 2A represents AML12 cells (alpha mouse liver 12 cells), FIG. 2B represents 293T cells, the abscissa represents an AS-hepc3(48-56) protein concentration (μM), and the ordinate represents a cell proliferation rate (%).
(§2) 1. Mouse hepatocytes (AML12) (mouse liver cells) and human kidney epithelial cells (293T) were selected to detect a cytotoxicity of the antimicrobial peptide AS-hepc3(48-56).
(§3) 2. A detailed method is as follows.
(§4) (6) Well-grown mouse hepatocytes (AML12) and human kidney epithelial cells (293T) were collected, a cell concentration was adjusted to 10^3-10^4 cells/mL, the cells were evenly blown, and 100 μL of strain suspension was placed in each well of a 96-well cell culture plate and was static cultured at a condition of 37° C. and […]. More than 50% of the strains were adhered to a wall.
(§5) (7) The medium is carefully sucked out, a corresponding medium comprising different concentrations (0 μM, 40 μM, or 80 μM) was added and was static cultured for 24 hours at a condition of 37° C. and […].
(§6) (8) After 20 μL of MTS-PMS solution was added and was incubated for 3 hours in the dark, an OD492 value (optical density reading at 492 nm wavelength) was detected by a microplate reader to evaluate the cytotoxicity of the antimicrobial peptide AS-hepc3(48-56).

The next data set is described as follows: in vitro. The data set is classed as cell-based, human.
Excerpt: as §1, §2, §3, §4, §5, §6

For data set [3], the system named is mouse hepatocytes (AML12). The data set can be described thus: in vitro. The data set is classed as cell-based.
Excerpt: as §1, §2, §3, §4, §5, §6

Data set [4] relates to drug-resistant clinical Acinetobacter baumannii isolate QZ18050. The data set is classed as cell-based. Conditions: A. baumannii QZ18050.
Excerpt: (§7) 1. Strains were as follows: Pseudomonas aeruginosa PAO1, drug-resistant clinical Pseudomonas aeruginosa isolates QZ19121, QZ19122, QZ19123, QZ19124, and QZ19125, drug-resistant clinical Acinetobacter baumannii isolates QZ18050 and QZ18055, clinical isolation of resistant Staphylococcus aureus QZ18090 and QZ18091, drug-resistant clinical Klebsiella pneumoniae isolate QZ18106, and drug-resistant clinical Escherichia coli isolates QZ18109 and QZ18110. Pseudomonas aeruginosa PAO1 was purchased from the China General Microbiological Culture Collection Center, Institute of Microbiology, Chinese Academy of Sciences, and the clinical isolates were from the Laboratory of Second Affiliated Hospital of Fujian Medical University.
as §3
(§8) (1) Preserved strains were streaked on MH plates (Mueller-Hinton agar plates) and were cultured at 37° C. overnight;
(§9) (2) A single clone was screened and was cultured in a MH liquid medium (Mueller-Hinton agar liquid medium) at 37° C. and 200 rpm (revolutions per minute) to a logarithmic stage;
(§10) (3) The strains were collected at 5000 g (i.e., a 5000 g centrifugal force) for 2 minutes, the strains were resuspended with a 10 mM (mmol/L) sodium phosphate buffer (pH=7.4), and the strains were finally diluted with the MH liquid medium to enable a final concentration of the strains to be 5×10^5 cfu/mL;
(§11) (4) Synthesized powder of the antimicrobial peptide AS-hepc3(48-56) was dissolved in sterile Milli-Q water, and a peptide concentration (i.e., a concentration of the antimicrobial peptide AS-hepc3(48-56)) was diluted to 2 μM, 4 μM, 8 μM, 16 μM, 32 μM, or 64 μM in double ratios; and
(§12) (5) On a polypropylene sterile 96-well culture plate, each test strain was arranged into a blank control group, a negative control group, and a test group, and three parallel groups of each test group were as follows: • a) Blank control group: 50 μL of test peptide sample (i.e., the antimicrobial peptide AS-hepc3(48-56)) and 50 μL of medium (i.e., the Mueller-Hinton agar liquid medium); • b) Negative control group: 50 μL of sterile Milli-Q water and 50 μL of strain suspension; and • c) Test group: 50 μL of test peptide sample and 50 μL of the strain suspension.
(§13) The polypropylene sterile 96-well culture plate was placed in a 37° C. incubator for 18-24 hours, and MIC results in the test group were observed. After the test group was pipetted and mixed, an appropriate amount of the strain was drawn and spread on the MH plate and was cultured at 37° C. overnight, and MBC results were observed.
(§14) Annotations: MIC: minimum inhibitory concentration (μM), which is represented by a-b; a is a maximum peptide concentration at which a growth of the strain can be observed by naked eyes, and b is a minimum peptide concentration at which no growth of the strain can be observed by the naked eyes. MBC: Minimum bactericidal concentration (μM), which is a concentration that kills 99.9% of microbes.

Data set [5] has as its system drug-resistant clinical Pseudomonas aeruginosa isolate QZ19122. The data set is classed as cell-based. The following applies: P. aeruginosa QZ19122.
Excerpt: as §7, §3, §8, §9, §10, §11, §12, §13, §14

Data set [6] concerns resistant Staphylococcus aureus QZ18091. The data set is classed as cell-based. The following applies: S. aureus QZ18091.
Excerpt: as §7, §3, §8, §9, §10, §11, §12, §13, §14

Data set [7] relates to drug-resistant clinical Pseudomonas aeruginosa isolate QZ19121. The data set is classed as cell-based. Conditions: P. aeruginosa QZ19121.
Excerpt: as §7, §3, §8, §9, §10, §11, §12, §13, §14

The subject of data set [8] is drug-resistant clinical Pseudomonas aeruginosa isolate QZ19123. The data set is classed as cell-based. The following applies: P. aeruginosa QZ19123.
Excerpt: as §7, §3, §8, §9, §10, §11, §12, §13, §14

Data set [9] relates to resistant Staphylococcus aureus QZ18090. The data set is classed as cell-based. The following applies: S. aureus QZ18090.
Excerpt: as §7, §3, §8, §9, §10, §11, §12, §13, §14

Data set [10] concerns drug-resistant clinical Escherichia coli isolate QZ18109. The data set is classed as cell-based. Conditions: E. coli QZ18109.
Excerpt: as §7, §3, §8, §9, §10, §11, §12, §13, §14

The test system of data set [11] is Pseudomonas aeruginosa PAO1. The data set is classed as cell-based.
Excerpt: as §7, §3, §8, §9, §10, §11, §12, §13, §14

The subject of data set [12] is drug-resistant clinical Pseudomonas aeruginosa isolate QZ19124. The data set is classed as cell-based. Conditions: P. aeruginosa QZ19124.
Excerpt: as §7, §3, §8, §9, §10, §11, §12, §13, §14

Data set [13] has as its system drug-resistant clinical Klebsiella pneumoniae isolate QZ18106. The data set is classed as cell-based. Conditions: K. pneumoniae QZ18106.
Excerpt: as §7, §3, §8, §9, §10, §11, §12, §13, §14

The test system of data set [14] is drug-resistant clinical Pseudomonas aeruginosa isolate QZ19125. The data set is classed as cell-based. The following applies: P. aeruginosa QZ19125.
Excerpt: as §7, §3, §8, §9, §10, §11, §12, §13, §14

The subject of data set [15] is drug-resistant clinical Escherichia coli isolate QZ18110. The data set is classed as cell-based. The following applies: E. coli QZ18110.
Excerpt: as §7, §3, §8, §9, §10, §11, §12, §13, §14

Data set [16] relates to drug-resistant clinical Acinetobacter baumannii isolate QZ18055. The data set is classed as cell-based. The following applies: A. baumannii QZ18055.
Excerpt: as §7, §3, §8, §9, §10, §11, §12, §13, §14

Where [17] appears, read: human, 293T cells (human kidney epithelial cells).
The mark [18] stands for this setting: mouse, AML12 cells (mouse hepatocytes).

In brackets after ≈: the same amount, converted by molar mass. Peptide text beside a SMILES is read from it.

With `N=C(N)NCCC[C@H](NC(=O)[C@H](CS)NC(=O)[C@H](CCCNC(=N)N)NC(=O)[C@H](CCCNC(=N)N)NC(=O)[C@H](CCCNC(=N)N)NC(=O)[C@@H](N)CCCNC(=N)N)C(=O)N[C@@H](Cc1ccccc1)C(=O)N[C@@H](CS)C(=O)N[C@@H](CS)C(=O)O` [AS-hepc3(48-56), Arg-Arg-Arg-Arg-Cys-Arg-Phe-Cys-Cys] (H-RRRRCRFCC-OH; N-terminus and C-terminus assumed), the “anti-Pseudomonas aeruginosa MIC value relative to initial MIC value” in [1] (after 150 days of continuous use) is “twice”. For the same compound, the “cytotoxicity (in words)” value in data set [2] and in [3] was “no cytotoxicity” throughout. Moreover, the viability at 24 h, 40 µM in “in vitro” (setting [17]) and in the data set “in vitro” (setting [18]) was above 95% throughout. In addition, the viability at 24 h, 80 µM in the data set “in vitro” (setting [17]) and in “in vitro” (setting [18]) was above 95% in each case. In addition, the minimal bactericidal concentration (MBC) in data set [4] was above 32 µM; in [5], 16 µM (≈ 20.1 µg/mL); in data set [6] it was 8 µM (≈ 10 µg/mL); in data set [7], 16 µM (≈ 20.1 µg/mL); in data set [8], 16 µM (≈ 20.1 µg/mL); in data set [9], 8 µM (≈ 10 µg/mL). For the same compound, the MBC in data set [10] is 16 µM (≈ 20.1 µg/mL); in data set [11] it was 8 µM (≈ 10 µg/mL); in [12] it was 16 µM (≈ 20.1 µg/mL); in data set [13], above 32 µM; in [14] it was 16 µM (≈ 20.1 µg/mL); in data set [15], 8 µM (≈ 10 µg/mL). In data set [16], this compound yielded an MBC above 32 µM. Moreover, the MIC was above 32 µM in data set [4]; 4 to 8 µM in data set [5]; 4 to 8 µM in [6]; 4 to 8 µM in data set [7]; 4 to 8 µM in [8]; 4 to 8 µM in [9]. For the same compound, the minimal inhibitory concentration (MIC) in data set [10] is 4 to 8 µM; in data set [11], 4 to 8 µM; in data set [12] it was 4 to 8 µM; in [13], above 32 µM; in data set [14], 8 to 16 µM; in data set [15], 4 to 8 µM. Besides, the MIC in data set [16] is above 32 µM.
Take `C[C@@H](O)[C@H]1C(=O)N2C(C(=O)O)=C(S[C@@H]3CN[C@H](C(=O)N(C)C)C3)[C@H](C)[C@H]12` [meropenem]: the “anti-Pseudomonas aeruginosa MIC value relative to initial MIC value” in data set [1] (after 3 days of continuous use) came to 4 times; in data set [1] (after 10 days of continuous use) it was 16 times; in [1] (after 90 days of use), 1024 times.
